Results published in the NIST ThermoML archive (doi:10.1016/j.jct.2018.02.013).

Tests used:
[1] = 101.33 kPa, Liquid; for thermal conductivity: transient hot wire; for mass density: Vibrating tube method; for viscosity: Cone and plate viscometry; for electrical conductivity: Direct current cell with electrodes
[2] = molar heat capacity at constant pressure; details: 101.33 kPa, Liquid, Small sample (50 mg) DSC

CCCCCCCCn1cc[n+](C)c1.O=S(=O)([N-]S(=O)(=O)C(F)(F)F)C(F)(F)F
[1]
Details | thermal conductivity [W/m/K]
280.03 K | 0.1289
288.73 K | 0.1279
297.76 K | 0.1279
307.59 K | 0.1279
318.58 K | 0.1265
328.58 K | 0.1259
337.48 K | 0.1259
347.72 K | 0.1259
357.76 K | 0.1245

CCCC(=O)[O-].CCCCCCCCCCCCCC[P+](CCCCCC)(CCCCCC)CCCCCC [trihexyl(tetradecyl)phosphonium butyrate]
Details | electrical conductivity [S/m] | mass density [kg/m3] | molar heat capacity at constant pressure [J/K/mol] | thermal conductivity [W/m/K] | viscosity [mPa·s]
[1], 277.77 K | – | – | – | 0.16 | –
[1], 288.17 K | – | – | – | 0.159 | –
[1], 293.15 K | – | 893 | – | – | –
[1], 293.2 K | – | – | – | – | 334.3
[1], 295.2 K | 0.00389 | – | – | – | –
[1], 298.15 K | – | 890.4 | – | – | –
[1], 298.2 K | – | – | – | – | 251.1
[1], 298.48 K | – | – | – | 0.1566 | –
[1], 303.15 K | – | 887.8 | – | – | –
[1], 303.2 K | – | – | – | – | 190.2
[1], 303.8 K | 0.00631 | – | – | – | –
[1], 306.44 K | – | – | – | 0.1553 | –
[1], 308.2 K | – | – | – | – | 146.3
[1], 308.5 K | 0.0083 | – | – | – | –
[1], 313.15 K | – | 881.2 | – | – | –
[1], 313.2 K | – | – | – | – | 115
[1], 313.9 K | 0.0106 | – | – | – | –
[1], 318.11 K | – | – | – | 0.1543 | –
[1], 318.2 K | – | – | – | – | 91.46
[1], 318.5 K | 0.0137 | – | – | – | –
[1], 323.15 K | – | 875.1 | – | – | –
[1], 323.2 K | – | – | – | – | 74.08
[1], 323.6 K | 0.0172 | – | – | – | –
[1], 327.69 K | – | – | – | 0.1526 | –
[1], 328.2 K | – | – | – | – | 60.22
[1], 328.8 K | 0.0214 | – | – | – | –
[1], 333.15 K | – | 869 | – | – | –
[1], 333.2 K | – | – | – | – | 49.78
[1], 333.8 K | 0.0261 | – | – | – | –
[1], 336.59 K | – | – | – | 0.1509 | –
[1], 338.2 K | – | – | – | – | 41.11
[1], 338.7 K | 0.0315 | – | – | – | –
[1], 343.15 K | – | 862.7 | – | – | –
[1], 343.2 K | – | – | – | – | 34.26
[1], 343.9 K | 0.0377 | – | – | – | –
[1], 348.16 K | – | – | – | 0.1503 | –
[1], 348.2 K | – | – | – | – | 28.85
[1], 349.1 K | 0.0446 | – | – | – | –
[1], 353.15 K | – | 856.7 | – | – | –
[1], 353.2 K | – | – | – | – | 24.66
[1], 355.83 K | – | – | – | 0.1492 | –
[1], 358.2 K | – | – | – | – | 21.36
[1], 363.15 K | – | 850.3 | – | – | –
[1], 363.2 K | – | – | – | – | 18.76
[1], 368.2 K | – | – | – | – | 16.49
[2], 293.15 K | – | – | 1107.1 | – | –
[2], 298.15 K | – | – | 1112.8 | – | –
[2], 303.15 K | – | – | 1118.5 | – | –
[2], 308.15 K | – | – | 1123.6 | – | –
[2], 313.15 K | – | – | 1129.9 | – | –
[2], 318.15 K | – | – | 1136.2 | – | –
[2], 323.15 K | – | – | 1142.5 | – | –
[2], 328.15 K | – | – | 1148.2 | – | –
[2], 333.15 K | – | – | 1154.5 | – | –
[2], 338.15 K | – | – | 1161.3 | – | –
[2], 343.15 K | – | – | 1168.2 | – | –
[2], 348.15 K | – | – | 1175 | – | –
[2], 353.15 K | – | – | 1181.9 | – | –
[2], 358.15 K | – | – | 1188.7 | – | –
[2], 363.15 K | – | – | 1196.1 | – | –
